The target of series [1] is T1, Amine oxidase [flavin-containing] B (Homo sapiens, UniProt P27338).
T1 sequence (P27338 whole entry): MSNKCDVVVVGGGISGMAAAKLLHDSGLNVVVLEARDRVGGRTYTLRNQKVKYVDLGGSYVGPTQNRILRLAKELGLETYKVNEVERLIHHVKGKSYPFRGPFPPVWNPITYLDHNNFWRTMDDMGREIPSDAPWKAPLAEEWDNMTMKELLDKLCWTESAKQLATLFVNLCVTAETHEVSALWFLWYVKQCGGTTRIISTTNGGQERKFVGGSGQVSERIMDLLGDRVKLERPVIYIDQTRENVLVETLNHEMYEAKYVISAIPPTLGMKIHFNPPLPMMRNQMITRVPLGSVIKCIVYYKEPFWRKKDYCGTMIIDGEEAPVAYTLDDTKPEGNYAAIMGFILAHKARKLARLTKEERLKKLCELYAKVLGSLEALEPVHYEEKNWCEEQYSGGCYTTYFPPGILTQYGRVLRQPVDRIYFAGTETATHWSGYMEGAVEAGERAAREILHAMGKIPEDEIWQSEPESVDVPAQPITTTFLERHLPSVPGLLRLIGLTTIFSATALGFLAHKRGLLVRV
The series can be described thus: Inhibition of human recombinant MAOB using kynuramine as substrate incubated for 10 mins by UPLC-ESI-MS/MS analysis.

The species named for the next series is Homo sapiens. Put plainly: Selectivity index, ratio of IC50 for human recombinant MAOB to IC50 for human recombinant MAOA.
A further series addresses T2, Monoamine oxidase (Mus musculus, UniProt Q8BW75+Q64133).
T2 sequence (Q8BW75 whole entry): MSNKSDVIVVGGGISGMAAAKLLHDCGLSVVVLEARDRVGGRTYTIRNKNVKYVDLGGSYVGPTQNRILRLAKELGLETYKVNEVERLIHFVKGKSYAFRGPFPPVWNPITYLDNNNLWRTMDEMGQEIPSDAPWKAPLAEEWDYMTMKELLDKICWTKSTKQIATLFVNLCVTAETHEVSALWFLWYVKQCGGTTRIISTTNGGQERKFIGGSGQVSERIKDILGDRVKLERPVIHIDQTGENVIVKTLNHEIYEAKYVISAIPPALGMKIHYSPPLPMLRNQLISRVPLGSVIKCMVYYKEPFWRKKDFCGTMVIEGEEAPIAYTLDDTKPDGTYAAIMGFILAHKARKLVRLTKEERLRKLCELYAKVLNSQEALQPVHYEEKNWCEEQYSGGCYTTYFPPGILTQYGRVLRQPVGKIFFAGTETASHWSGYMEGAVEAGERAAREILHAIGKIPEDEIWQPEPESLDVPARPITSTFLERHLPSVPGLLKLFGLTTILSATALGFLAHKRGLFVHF
T2 sequence (Q64133 whole entry): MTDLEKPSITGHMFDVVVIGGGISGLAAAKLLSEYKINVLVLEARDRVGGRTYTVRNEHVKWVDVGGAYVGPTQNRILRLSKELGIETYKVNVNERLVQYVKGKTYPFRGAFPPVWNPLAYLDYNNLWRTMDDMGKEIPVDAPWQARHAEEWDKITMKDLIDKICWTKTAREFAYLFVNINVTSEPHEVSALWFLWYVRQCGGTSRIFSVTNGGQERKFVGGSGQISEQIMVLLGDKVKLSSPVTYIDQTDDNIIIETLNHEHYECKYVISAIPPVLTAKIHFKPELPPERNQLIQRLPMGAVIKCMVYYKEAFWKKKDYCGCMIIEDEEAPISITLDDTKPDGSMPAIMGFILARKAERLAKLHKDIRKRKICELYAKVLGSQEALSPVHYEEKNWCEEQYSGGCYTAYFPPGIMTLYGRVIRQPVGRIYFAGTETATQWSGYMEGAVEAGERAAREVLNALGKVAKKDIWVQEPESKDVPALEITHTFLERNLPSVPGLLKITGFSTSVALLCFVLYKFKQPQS
Put plainly: Inhibition of mouse brain monoamine oxidase.

Series [2] addresses T3, Amine oxidase [flavin-containing] A (Homo sapiens, UniProt P21397).
T3 sequence (P21397 whole entry): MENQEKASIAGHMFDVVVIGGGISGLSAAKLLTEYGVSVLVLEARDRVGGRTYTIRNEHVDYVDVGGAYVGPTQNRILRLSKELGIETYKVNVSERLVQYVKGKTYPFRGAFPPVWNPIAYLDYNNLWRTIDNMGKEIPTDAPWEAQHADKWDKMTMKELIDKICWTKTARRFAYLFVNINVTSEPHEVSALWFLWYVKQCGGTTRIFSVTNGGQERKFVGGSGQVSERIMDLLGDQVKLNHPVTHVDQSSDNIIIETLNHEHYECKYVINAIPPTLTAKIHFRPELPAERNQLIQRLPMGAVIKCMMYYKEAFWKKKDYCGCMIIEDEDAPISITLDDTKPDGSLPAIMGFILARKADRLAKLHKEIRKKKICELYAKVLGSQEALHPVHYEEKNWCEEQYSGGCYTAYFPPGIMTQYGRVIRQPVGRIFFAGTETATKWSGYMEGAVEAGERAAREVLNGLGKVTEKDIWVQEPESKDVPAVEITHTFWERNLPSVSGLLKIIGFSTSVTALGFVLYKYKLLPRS
The series can be described thus: Inhibition of human recombinant MAOA using kynuramine as substrate incubated for 10 mins by UPLC-ESI-MS/MS analysis.

In series [3] the target is T3, Amine oxidase [flavin-containing] A. Put plainly: Inhibition of human recombinant MAOA using kynuramine as substrate incubated for 10 mins by UPLC-ESI-MS/MS analysis based Michaelis-Menten plot kinetic analysis.
Series [4] has the same target. The series can be described thus: Inhibition of human recombinant MAOA using kynuramine as substrate incubated for 10 mins by UPLC-ESI-MS/MS analysis based Eadie-Hofstee plot analysis.
For series [5] the target is unchanged. Put plainly: Tight-binding competitive inhibition of human recombinant MAOA using kynuramine as substrate incubated for 10 mins by UPLC-ESI-MS/MS analysis based Lineweaver-Burk plot kinetic analysis.
The target is the same in series [6]. Put plainly: Tight binding competitive inhibition of human recombinant MAOA using 50 uM to 1000 uM kynuramine as substrate incubated for 10 mins by UPLC-ESI-MS/MS analysis based kinetic analysis.

A value given as a limit tells only on which side of the number the result lay.

In general, IC50 refers to the concentration needed to halve the response being measured. For `Cc1ccc(O)c2c1C[C@@H](C)OC2=O`, the IC50 in series [1] worked out at 38500 nM; against Monoamine oxidase it was 1060 nM; in series [2], 4600 nM. Also, the Ratio IC50 in the series filed under Homo sapiens was determined as 8.3.
For the compound `Cc1cc(-c2cccc(N)c2)c(O)c2c1C[C@@H](C)OC2=O`, the IC50 was over 50000 nM in series [1] and 200 nM in series [2]. Besides, the Ratio IC50 in the series filed under Homo sapiens was over 250. The “inhibition (INH)” value in series [3], in series [4] and in series [5] was “Active” in each case.
As for `Cc1cc(-c2cccnc2)c(O)c2c1C[C@@H](C)OC2=O`, the IC50 in series [1] was over 50000 nM; in series [2], 200 nM. In addition, the Ratio IC50 in the series filed under Homo sapiens was over 250. In addition, the “inhibition (INH)” value in series [3], in series [4] and in series [5] was “Active” throughout.
As for `CC[C@@H]1Cc2c(C)cc(-c3cncnc3)c(O)c2C(=O)O1`, the IC50 in series [1] was over 50000 nM; in series [2], 60 nM. For the same compound, the Ratio IC50 in the series listed under Homo sapiens was over 830. Also, the “inhibition (INH)” value in series [3], in series [6], in series [4] and in series [5] was “Active” throughout.
For `Cc1cc(-c2cncnc2)c(O)c2c1C[C@@H](C)OC2=O`, the values for the IC50 in series [1] and in series [2] were over 50000 nM and 140 nM, respectively. Further, in the series filed under Homo sapiens, the Ratio IC50 is over 350. The “inhibition (INH)” value in series [3], in series [4] and in series [5] was “Active” throughout.

The values above are taken from ChEMBL document CHEMBL4392854, “Discovery, synthesis, biological evaluation and molecular docking study of (R)-5-methylmellein and its analogs as selective monoamine oxidase A inhibitors” (Bioorg Med Chem, 2019).
